Literature values as cited in US20070054964A1 (Wyeth, priority 2005, published 2007).

Experiments:
[1] = tested on: neuronal norepinephrine re-uptake
[2] = oral administration, vs venlafaxine, ODV or other salts of ODV
[3] = compared with ODV free base
[4] = compared with ODV free base; remark: listed apart in the source
[5] = target: H1-histaminergic receptors (Homo sapiens, UniProt P35367)
[6] = tested on: neuronal serotonin re-uptake
[7] = in vitro studies, Muth et al. 1991

H1-histaminergic receptors, sequence (P35367 whole entry): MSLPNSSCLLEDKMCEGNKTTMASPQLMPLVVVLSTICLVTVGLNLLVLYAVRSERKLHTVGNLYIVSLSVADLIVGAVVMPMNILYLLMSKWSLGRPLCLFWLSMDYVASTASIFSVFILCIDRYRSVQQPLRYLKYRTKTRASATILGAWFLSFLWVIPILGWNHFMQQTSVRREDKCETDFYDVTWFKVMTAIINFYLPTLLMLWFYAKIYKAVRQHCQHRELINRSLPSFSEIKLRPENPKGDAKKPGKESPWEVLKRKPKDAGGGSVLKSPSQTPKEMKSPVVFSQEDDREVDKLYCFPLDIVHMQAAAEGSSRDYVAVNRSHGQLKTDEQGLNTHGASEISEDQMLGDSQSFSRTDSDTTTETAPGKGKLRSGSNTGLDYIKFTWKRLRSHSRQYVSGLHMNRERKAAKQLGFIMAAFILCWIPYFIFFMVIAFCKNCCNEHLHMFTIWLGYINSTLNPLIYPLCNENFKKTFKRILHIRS

Structure (SMILES) | inhibition of neuronal norepinephrine re-uptake [1] | inhibition of dopamine re-uptake (dopamine re-uptake) | affinity for α1-adrenergic receptors (α1-adrenergic receptors) | incidence of nausea, vomiting, diarrhea, abdominal pain, headache, vaso-vagal malaise, and/or trismus [2] | bioavailability [3] | permeability [4] | potency of norepinephrine re-uptake inhibition compared with venlafaxine [1, 7] | affinity for H1-histaminergic receptors [5] | solubility compared with venlafaxine | inhibition of neuronal serotonin re-uptake [6] | potency of serotonin re-uptake inhibition compared with venlafaxine [6, 7] | affinity for muscarinic receptors (muscarinic receptors)
COc1ccc(C(CN(C)C)C2(O)CCCCC2)cc1 (racemic) [Venlafaxine, (±)-1-[2-(dimethylamino)-1-(4-methoxyphenyl)ethyl]-cyclohexanol] | potent inhibitors | weak inhibitors | no significant affinity |  |  |  |  |  |  |  |  | 
CN(C)CC(c1ccc(O)cc1)C1(O)CCCCC1.O=C(O)CCC(=O)O (stereo not drawn) [ODV succinate] |  |  |  | lower incidence | improved | improved |  |  |  |  |  | 
CN(C)CC(c1ccc(O)cc1)C1(O)CCCCC1 (stereo not drawn) [ODV, 1-[2-(dimethyl-amino)-1-(4-phenyl)ethyl]-cyclohexanol] | potent inhibitors | weak inhibitors | no significant affinity |  |  |  | more potent inhibitor | no significant affinity | more soluble | potent inhibitors | more potent inhibitor | no significant affinity
